Assay results: US12622866B2, “Topical compositions and methods” (MARY KAY INC., priority 2018, dated 2026)

Experiments:
B16-F1 melanocytes = assay: B16 pigmentation assay (melanogenesis); assay type: cell-based, mouse; conditions: ingredient 1%, 6 days, melanin secretion by absorbance at 405 nm
Excerpt: Melanogenesis is the process by which melanocytes produce melanin, a naturally produced pigment that imparts color to skin, hair, and eyes. Inhibiting melanogenesis is beneficial to prevent skin darkening and lighten dark spots associated with aging. This bioassay utilizes B16-F1 melanocytes (ATCC), an immortalized mouse melanoma cell line, to analyze the effect of compounds on melanogenesis. The endpoint of this assay is a spectrophotometric measurement of melanin production and cellular viability. B16-F1 melanocytes, were cultivated in standard DMEM growth medium with 10% fetal bovine serum (Mediatech) at 37° C. in 10% CO2 and then treated with the ingredients in the amounts indicated in Table 2 for 6 days. Following incubation, melanin secretion was measured by absorbance at 405 nm and cellular viability is quantified.

mushroom tyrosinase = assay: Mushroom tyrosinase activity assay; assay type: biochemical; conditions: ingredient 1%, substrate L-Dopa, read at 490 nm
Procedure: In mammalian cells, tyrosinase catalyzes two steps in the multi-step biosynthesis of melanin pigments from tyrosine (and from the polymerization of dopachrome). Tyrosinase is localized in melanocytes and produces melanin (aromatic quinone compounds) that imparts color to skin, hair, and eyes. Purified mushroom tyrosinase (Sigma) was incubated with its substrate L-Dopa (Fisher) in the presence of each of the ingredients in the amounts indicated in Table 3. Pigment formation was evaluated by colorimetric plate reading at 490 nm. The percent inhibition of mushroom tyrosinase activity was calculated compared to non-treated controls to determine the ability of tested ingredients to inhibit the activity of purified enzyme.

[1] = Antioxidant (AO) assay, total anti-oxidant capacity; assay type: biochemical; conditions: ingredient 1%, Cayman Anti-Oxidant capacity kit #709001
Excerpt: The assay relies on the ability of antioxidants in the sample to inhibit the oxidation of ABTS® (2,2′-azino-di-[3-ethylbenzthiazoline sulphonate]) to ABTS®·+by metmyoglobin. The antioxidant system of living organisms includes enzymes such as superoxide dismutase, catalase, and glutathione peroxidase; macromolecules such as albumin, ceruloplasmin, and ferritin; and an array of small molecules, including ascorbic acid, α-tocopherol, β-carotene, reduced glutathione, uric acid, and bilirubin. The sum of endogenous and food-derived antioxidants represents the total antioxidant activity of the extracellular fluid. Cooperation of all the different antioxidants provides greater protection against attack by reactive oxygen or nitrogen radicals, than any single compound alone. Thus, the overall antioxidant capacity may give more relevant biological information compared to that obtained by the measurement of individual components, as it considers the cumulative effect of all antioxidants present in plasma and body fluids. The capacity of the antioxidants in the sample to prevent ABTS oxidation was compared with that of Trolox, a water-soluble tocopherol analogue, and was quantified as molar Trolox equivalents. […]

[2] = tested on: Type I procollagen peptide secretion by human adult epidermal fibroblasts; assay: Collagen stimulation assay; assay type: cell-based; conditions: ingredient 1%, 3 days, ELISA
Excerpt: Collagen is an extracellular matrix protein critical for skin structure. Increased synthesis of collagen helps improve skin firmness and elasticity. This bioassay was used to examine effects on the production of procollagen peptide (a precursor to collagen) by human epidermal fibroblasts. The endpoint of this assay was a spectrophotometric measurement that reflects the presence of procollagen peptide and cellular viability. The assay employed the quantitative sandwich enzyme immunoassay technique whereby a monoclonal antibody specific for procollagen peptide was pre-coated onto a microplate. Standards and samples were pipetted into the wells and any procollagen peptide present was bound by the immobilized antibody. […] Color development was stopped and the intensity of the color at 450 nm was measured using a microplate reader.
For generation of samples and controls, subconfluent normal human adult epidermal fibroblasts (Cascade Biologics) were cultivated in standard DMEM growth medium with 10% fetal bovine serum (Mediatech) at 37° C. in 10% CO2. […] Following incubation, cell culture medium was collected and the amount of Type I procollagen peptide secretion was quantified using the sandwich enzyme linked immuno-sorbant assay (ELISA) from Takara (#MK101) as explained above. […]

[3] = tested on: lysyl oxidase expression in skin cells; assay: Lysyl oxidase assay; assay type: cell-based; conditions: ingredient 1%
Procedure: A lysyl oxidase assay was performed on skin cells (e.g., epidermal keratinocytes, fibroblasts, and/or dermal endothelial cells) to determine the ability of the ingredient listed in Table 8 to stimulate expression of lysyl oxidase in skin. Lysyl oxidase can catalyze crosslinking of elastin and collagens, thereby providing for a more structurally rigid matrix for skin. By increasing expression of lysyl oxidase, increased cross-linking of elastin and collagens can occur, which can be beneficial in reducing the appearance of fine lines, wrinkles, sagging skin, and/or non-elastic skin.

[4] = tested on: TNF-α production by human epidermal keratinocytes; assay: Tumor necrosis factor alpha (TNF-α) assay; assay type: cell-based; conditions: ingredient 1%, PMA 10 ng/ml, 6 hours, ELISA
Excerpt: The prototype ligand of the TNF superfamily, TNF-α, is a pleiotropic cytokine that plays a central role in inflammation. Increase in its expression is associated with an up regulation in pro-inflammatory activity. This bioassay was used to analyze the effect of the ingredients in the amounts listed in Table 9 on the production of TNF-α by human epidermal keratinocytes. The endpoint of this assay was a spectrophotometric measurement that reflects the presence of TNF-α and cellular viability. The assay employs the quantitative sandwich enzyme immunoassay technique whereby a monoclonal antibody specific for TNF-α has been pre-coated onto a microplate. Standards and samples were pipetted into the wells and any TNF-α present is bound by the immobilized antibody. After washing away any unbound substances, an enzyme-linked polyclonal antibody specific for TNF-α is added to the wells. Following a wash to remove any unbound antibody-enzyme reagent, a substrate solution is added to the wells and color develops in proportion to the amount of TNF-α bound in the initial step using a microplate reader for detection at 450 nm. The color development was stopped and the intensity of the color was measured. […] Following incubation, cell culture medium was collected and the amount of TNF-a secretion quantified using a sandwich enzyme linked immuno-sorbant assay (ELISA) from R&D Systems (#DTA00C).

Q: Which “% of Inhibition (B16 melanogenesis)” value (B16-F1 melanocytes) does the source give for `NC(=O)c1cccnc1` [Niacinamide] here?
A: 30%

Q: Which “% of Inhibition (Mushroom Tyrosinase Inhibition)” value (mushroom tyrosinase) does the source give for Sodium ascorbyl phosphate [Stay C 50] here?
A: 26%

Q: And the “% of Inhibition (Anti-oxidant capacity)” value [1]?
A: 97%

Q: And the “% of expression (Collagen 1 Expression)” value [2]?
A: 36%

Q: And the “% of expression (Lysyl Oxidase)” value [3]?
A: 500%

Q: What about the “% of expression (TNF-α Expression)” value [4] of the same compound?
A: 85%
